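Cells were grown in 96-well plates and exposed to each compound for 48 hours at five concentrations; endpoints were interpolated linearly between bracketing concentrations, or set to the highest concentration if not reached. TGI is the concentration that stops growth completely.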 Bounds are passed on as bounds.

12 compounds from PubChem BioAssay (NCI) can be followed below.

Among the test systems are DMS 273 small cell lung; LXFL 529 NSCLC; M19-MEL melanoma; XF 498 CNS; DMS 114 small cell lung; HOP-18 NSCLC; RXF-631 renal.
Assay in all cases: inhibition of tumour cell growth, NCI panel, 48 h

With `COc1cc2c(cc1OC)C(=O)C(C1=C(SC(=N)N)C(=O)c3cc(OC)c(OC)cc31)C2` (configuration not stated), the TGI with DMS 273 small cell lung, in the assay with LXFL 529 NSCLC, in the assay with M19-MEL melanoma, in the assay with XF 498 CNS and with DMS 114 small cell lung was above 100 µM throughout.

For the compound `C=CCN(C)CN(C)c1nc(N(C)C)nc(N(C)C)n1`, the TGI was above 100 µM in the assay with DMS 273 small cell lung; 89 µM with LXFL 529 NSCLC; above 100 µM with M19-MEL melanoma; above 100 µM in the assay with HOP-18 NSCLC; 42.7 µM in the assay with DMS 114 small cell lung.

On to `Cn1c2cc(O)cc(O)c2c(=O)c2c([N+](=O)[O-])cccc21`, for which the TGI in the assay on DMS 273 small cell lung, in the assay with LXFL 529 NSCLC, in the assay on RXF-631 renal, in the assay with HOP-18 NSCLC and with DMS 114 small cell lung was above 100 µM each time.

Take `O=c1cc(-c2ccccc2)oc2cc(OCCSCCCCCCCCCCSCCOc3ccc4c(=O)cc(-c5ccccc5)oc4c3)ccc12`: the TGI in the assay with LXFL 529 NSCLC, in the assay with M19-MEL melanoma, with RXF-631 renal, in the assay on HOP-18 NSCLC and with DMS 114 small cell lung was above 100 µM throughout.

With `CCOC(=O)c1ccc(-n2c(SCC)nc3sc(C)c(C)c3c2=O)cc1`, the TGI in the assay with DMS 273 small cell lung, in the assay on XF 498 CNS, in the assay on HOP-18 NSCLC and with DMS 114 small cell lung was above 100 µM each time.

As for `CC(C)C(/C=C/c1ccc(Br)cc1)=N\NC(N)=O`, the TGI in the assay on DMS 273 small cell lung is above 100 µM; in the assay on LXFL 529 NSCLC, above 100 µM; in the assay on M19-MEL melanoma, 25.4 µM; in the assay on XF 498 CNS, above 100 µM; with DMS 114 small cell lung it was above 100 µM.

In the case of `[N-]=[N+]=NC(CBr)c1cn([C@H]2C[C@H](O)[C@@H](CO)O2)c(=O)[nH]c1=O` (some centres not stated), the TGI with DMS 273 small cell lung, in the assay with LXFL 529 NSCLC, in the assay on M19-MEL melanoma, in the assay with HOP-18 NSCLC and in the assay on DMS 114 small cell lung was above 100 µM each time.

With `N=C(N)SCc1cccc2c(=O)cc(-c3ccccc3)oc12`, the TGI came to 27.7 µM in the assay on DMS 273 small cell lung; 49.9 µM in the assay with M19-MEL melanoma; 28.5 µM with RXF-631 renal; 28.4 µM in the assay with XF 498 CNS; 31.1 µM in the assay with DMS 114 small cell lung.

Turning to `CSc1nc2[nH]c(=O)c(C)nc2c(=O)[nH]1`, the TGI with DMS 273 small cell lung, in the assay with LXFL 529 NSCLC, in the assay on M19-MEL melanoma, in the assay with XF 498 CNS and with DMS 114 small cell lung was above 100 µM throughout.

With `O=C1CC(=O)N(CCc2ccccc2)S(=O)(=O)N1CCc1ccccc1`, the TGI in the assay with DMS 273 small cell lung was 43.8 µM; in the assay with LXFL 529 NSCLC, 40.7 µM; with M19-MEL melanoma, above 100 µM; in the assay with HOP-18 NSCLC, above 100 µM; in the assay with DMS 114 small cell lung, 48.6 µM.

For the compound `COc1cc(/C=C2/C(=O)N(C(=O)c3ccc(Cl)cc3)N=C2C)cc(OC)c1OC`, the TGI in the assay with LXFL 529 NSCLC, with M19-MEL melanoma and in the assay with XF 498 CNS was above 100 µM throughout.

On to `O=C(O)C12CCCC(CCC1)C2`, for which the TGI in the assay on DMS 273 small cell lung, in the assay on LXFL 529 NSCLC, in the assay with RXF-631 renal, with XF 498 CNS and in the assay on DMS 114 small cell lung was above 100 µM each time.
